EC50 data for 43 molecules are collected here from patent publication US20230348426A1, “OXOPYRROLIDINE FPR2 AGONISTS” (Bristol-Myers Squibb Company, priority 2020, published 2023).

One experiment addresses human FPR1 (Homo sapiens (Human), UniProt P21462). The experiment is described as follows: FPR1 cyclic adenosine monophosphate (cAMP) assay. The format is cell-based. Conditions: CHO cells overexpressing human FPR1; forskolin 10 µM; inhibition of cAMP production; read-out: hFPR1 cAMP EC50. An outline of the steps: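 Human FPR1-expressing CHO cells were used at 4,000 per well, with compound at 0.020 nM–100 µM in 1% DMSO. Potency came from a 4-parameter logistic fit.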

The target in the next experiment is human FPR2 (Homo sapiens (Human), UniProt P25090). The experiment is described as follows: FPR2 cyclic adenosine monophosphate (cAMP) assay. The format is cell-based. As to conditions: CHO cells overexpressing human FPR2; forskolin 5 µM; inhibition of cAMP production; read-out: hFPR2 cAMP2 EC50. An outline of the steps:
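Inhibition of forskolin-driven (5 µM) cAMP, with 200 µM IBMX, measured in human FPR2-expressing CHO cells, 2,000 per well, 30 min at room temperature; compounds tested 0.020 nM to 100 µM in 1% DMSO. HTRF 665/590 ratio converted to cAMP via calibration curve, then 4-parameter fit.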

A value given as a limit tells only on which side of the number the result lay.

human FPR2, sequence (P25090 whole entry): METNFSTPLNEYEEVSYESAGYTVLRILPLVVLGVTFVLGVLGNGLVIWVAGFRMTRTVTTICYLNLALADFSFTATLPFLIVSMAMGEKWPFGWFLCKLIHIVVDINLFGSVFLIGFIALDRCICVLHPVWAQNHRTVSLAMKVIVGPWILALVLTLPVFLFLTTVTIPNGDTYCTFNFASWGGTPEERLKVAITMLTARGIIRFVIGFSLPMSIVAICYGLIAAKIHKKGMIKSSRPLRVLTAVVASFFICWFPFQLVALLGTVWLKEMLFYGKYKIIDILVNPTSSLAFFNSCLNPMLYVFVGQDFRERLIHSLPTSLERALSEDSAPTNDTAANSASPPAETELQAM
human FPR1, sequence (P21462 whole entry): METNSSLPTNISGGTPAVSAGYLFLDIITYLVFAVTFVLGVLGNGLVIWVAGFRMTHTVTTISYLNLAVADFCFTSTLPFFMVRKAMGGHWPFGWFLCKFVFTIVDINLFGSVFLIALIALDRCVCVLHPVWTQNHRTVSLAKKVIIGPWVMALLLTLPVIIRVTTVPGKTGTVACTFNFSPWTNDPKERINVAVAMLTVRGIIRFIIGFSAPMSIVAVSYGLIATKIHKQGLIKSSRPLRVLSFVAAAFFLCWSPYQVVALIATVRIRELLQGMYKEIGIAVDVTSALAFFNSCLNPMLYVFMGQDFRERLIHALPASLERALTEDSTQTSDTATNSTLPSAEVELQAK

As to `COc1cc(F)c([C@@H]2CN(c3nc(N4C[C@@H](C)N(C)[C@@H](C)C4)ccc3OC)C(=O)[C@H]2NC(=O)c2ccc(Cl)cc2)c(F)c1` [Example 284], the figures for the EC50 at human FPR1 and on human FPR2 were 580 nM and 8.4 nM, respectively.
The like results for `COc1cc(N2C[C@@H](c3c(F)cc(OC)cc3F)[C@H](NC(=O)c3ccc(OC(F)F)cc3)C2=O)nc(N2C[C@@H]3C[C@H]2CN3C)c1` [Example 285] were, in that order, 220 nM and 2.9 nM.
The matching figures for `COc1cc(F)c([C@@H]2CN(c3c(Cl)ccn(C)c3=O)C(=O)[C@H]2NC(=O)c2ccc(OC(F)F)cc2)c(F)c1` [Example 286]: 130 nM and 8.5 nM.
The like results for `COc1cc(F)c([C@@H]2CN(c3nccc(N4CCN(C)CC4)c3C#N)C(=O)[C@H]2NC(=O)c2ccc(Cl)cc2)c(F)c1` [Example 287] were, in that order, 4600 nM and 8.6 nM.
As for `COCCn1ccc(C)c(N2C[C@@H](c3ccc(OC)cc3F)[C@H](NC(=O)c3ccc(OC(F)(F)F)cc3)C2=O)c1=O` [Example 288], the EC50 at human FPR1 was found to be 0.8 nM; at human FPR2, 8.6 nM.
Take `CNC(=O)C(C)Nc1ccnc(N2C[C@@H](c3c(F)cc(OC)cc3F)[C@H](NC(=O)c3ccc(Cl)cc3)C2=O)c1C(F)(F)F` (some centres unmarked) [Example 290]: the EC50 worked out at 1800 nM on human FPR1 and 8.6 nM on human FPR2.
The like results for `COc1cc(F)c([C@@H]2CN(c3c(C)ccn(C)c3=O)C(=O)[C@H]2NC(=O)c2ccc(OC(F)(F)F)cc2)c(F)c1` [Example 291] were, in that order, 6.6 nM and 8.7 nM.
For the molecule `COCCn1cccc(N2C[C@@H](c3c(F)cc(OC)cc3F)[C@H](NC(=O)c3ccc(C)cc3)C2=O)c1=O` [Example 292], the EC50 came out at 950 nM on human FPR1 and 8.7 nM at human FPR2.
As to `COCC(CO)n1cccc(N2C(=O)[C@@H](NC(=O)c3ccc(OC(F)(F)F)cc3)[C@H](c3c(F)cc(OC)cc3F)[C@@H]2C)c1=O` (some centres unmarked) [Example 293], the figures for the EC50 on human FPR1 and at human FPR2 were 44 nM and 8.7 nM, respectively.
For `COc1cc(F)c([C@@H]2CN(c3c(C)ccn(CC(O)C(F)(F)F)c3=O)C(=O)[C@H]2NC(=O)c2ccc(OC(F)F)cc2)c(F)c1` (some centres unmarked) [Example 294], the results for the EC50 on human FPR1 and at human FPR2 were 9.1 nM and 8.8 nM, respectively.
Regarding `COCC(C(=O)N(C)C)n1ccc(C)c(N2C[C@@H](c3ccc(OC)cc3)[C@H](NC(=O)c3ccc(OC(F)F)cc3)C2=O)c1=O` (some centres unmarked) [Example 295], the EC50 is 0.6 nM on human FPR1 and 8.9 nM on human FPR2.
On to `COc1cc(F)c([C@@H]2CN(c3c(C)ccn(CC(OC)C(F)(F)F)c3=O)C(=O)[C@H]2NC(=O)c2ccc(OC(F)(F)F)cc2)c(F)c1` (some centres unmarked) [Example 297], for which the EC50 on human FPR1 turned out to be 0.1 nM; at human FPR2, 9 nM.
The like results for `COc1cc(F)c([C@@H]2CN(c3cccn(C4CCOC4)c3=O)C(=O)[C@H]2NC(=O)c2ccc(OC(F)(F)F)cc2)c(F)c1` (some centres unmarked) [Example 298] were, in that order, 8.5 nM and 9 nM.
As for `COc1cc(F)c([C@@H]2CN(c3cc(NC(C)=O)cn(C)c3=O)C(=O)[C@H]2NC(=O)c2ccc(Cl)cc2)c(F)c1` [Example 299], the EC50 was 1900 nM at human FPR1 and 9.2 nM on human FPR2.
The like results for `COc1cc(F)c([C@@H]2CN(c3cccnn3)C(=O)[C@H]2NC(=O)c2ccc(OC(F)F)cc2)c(F)c1` [Example 300] were, in that order, 360 nM and 9.3 nM.
The matching figures for `COc1cc(F)c([C@H]2[C@H](NC(=O)c3ccc(OC(F)(F)F)cc3)C(=O)N(c3cccn(CCO)c3=O)[C@H]2C)c(F)c1` [Example 301]: 150 nM and 9.3 nM.
The like results for `COCCn1cccc(N2C[C@@H](c3c(F)cc(OC)cc3F)[C@H](NC(=O)c3ccc(OC(F)(F)F)cc3)C2=O)c1=O` [Example 302] were, in that order, 22 nM and 10 nM.
For the molecule `COc1cc(F)c([C@@H]2CN(c3nc(N4CCN(C)CC4)ccc3OC)C(=O)[C@H]2NC(=O)c2ccc(OC(F)F)cc2)c(F)c1` [Example 303], the EC50 at human FPR1 was 390 nM; on human FPR2, 9.6 nM.
The like results for `COc1cc(F)c([C@@H]2CN(c3cccn(C4COC4)c3=O)C(=O)[C@H]2NC(=O)c2ccc(OC(F)F)cc2)c(F)c1` [Example 304] were, in that order, 90 nM and 9.6 nM.
Take `COc1cc(F)c([C@@H]2CN(c3cccnc3P(C)(C)=O)C(=O)[C@H]2NC(=O)c2ccc(Cl)cc2)c(F)c1` [Example 305]: the results for the EC50 on human FPR1 and at human FPR2 were 1300 nM and 9.6 nM, respectively.
Take `COc1cc(F)c([C@@H]2CN(c3cccn(CCN4CCS(=O)(=O)CC4)c3=O)C(=O)[C@H]2NC(=O)c2ccc(OC(F)F)cc2)c(F)c1` [Example 306]: the EC50 at human FPR1 was 250 nM; at human FPR2, 9.8 nM.
The matching figures for `COCC(CO)n1cccc(N2C[C@@H](c3ccc(Cl)cc3)[C@H](NC(=O)c3ccc(OC(F)F)cc3)C2=O)c1=O` (some centres unmarked) [Example 307]: 1.8 nM and 9.9 nM.
The like results for `COc1cc(F)c([C@@H]2CN(c3cccn(CC(C)(C)O)c3=O)C(=O)[C@H]2NC(=O)c2ccc(OC(F)F)cc2)c(F)c1` [Example 308] were, in that order, 180 nM and 9.9 nM.
The like results for `COc1cc(F)c([C@@H]2CN(c3c(C)ccn(C)c3=O)C(=O)[C@H]2NC(=O)c2ccc(OC(F)F)cc2)c(F)c1` [Example 310] were, in that order, 67 nM and 10 nM.
With `COc1cc(F)c([C@@H]2CN(c3c(C(F)(F)F)ccn(C)c3=O)C(=O)[C@H]2NC(=O)c2ccc(OC(F)F)cc2)c(F)c1` [Example 311], the EC50 was 1900 nM on human FPR1 and 10 nM on human FPR2.
The matching figures for `COc1ccc([C@@H]2CN(c3c(C)ccn(CC4CC4)c3=O)C(=O)[C@H]2NC(=O)c2ccc(OC(F)(F)F)cc2)c(F)c1` [Example 312]: 0.5 nM and 10 nM.
The like results for `COc1cc(F)c([C@@H]2CN(c3nc(C(C)(C)O)ccc3F)C(=O)[C@H]2NC(=O)c2ccc(Cl)cc2)c(F)c1` [Example 313] were, in that order, 5400 nM and 10 nM.
The like results for `COc1cc(F)c([C@@H]2CN(c3c(C)ccn(CC(OC)C(F)(F)F)c3=O)C(=O)[C@H]2NC(=O)c2ccc(OC(F)F)cc2)c(F)c1` (some centres unmarked) [Example 314] were, in that order, 0.4 nM and 10 nM.
Consider `COCC(CO)n1cccc(N2C[C@@H](c3ccc(OC)cc3)[C@H](NC(=O)c3ccc(OC(F)F)cc3)C2=O)c1=O` (some centres unmarked) [Example 315], for which the EC50 on human FPR1 came out at 9.6 nM; at human FPR2, 10 nM.
In the case of `COc1cc(F)c([C@@H]2CN(c3nc(C4CCOCC4)ccc3F)C(=O)[C@H]2NC(=O)c2ccc(OC(F)F)cc2)c(F)c1` [Example 316], the EC50 on human FPR1 was determined as 95 nM; at human FPR2 it was 10 nM.
The like results for `COCC(C(=O)N(C)C)n1cccc(N2C[C@@H](c3ccc(Cl)cc3)[C@H](NC(=O)c3ccc(OC(F)F)cc3)C2=O)c1=O` (some centres unmarked) [Example 317] were, in that order, 2.6 nM and 10 nM.
`COc1cc(F)c([C@@H]2CN(c3nc(N4C[C@@H](C)N(C)[C@@H](C)C4)ccc3C#N)C(=O)[C@H]2NC(=O)c2ccc(Cl)cc2)c(F)c1` [Example 318]: the results for the EC50 at human FPR1 and on human FPR2 were greater than 10000 nM and 10 nM, respectively.
`CCn1cccc(N2C[C@@H](c3c(F)cc(OC)cc3F)[C@H](NC(=O)c3ccc(C#N)cc3)C2=O)c1=O` [Example 319]: the EC50 at human FPR1 turned out to be 200 nM; on human FPR2 it was 10 nM.
As for `COc1cc(F)c([C@@H]2CN(c3cccn(C4CCOC4)c3=O)C(=O)[C@H]2NC(=O)c2ccc(OC(F)F)cc2)c(F)c1` (some centres unmarked) [Example 320], the EC50 at human FPR1 was 44 nM; at human FPR2, 10 nM.
For `COc1cc(F)c([C@@H]2CN(c3cccn(CC(F)F)c3=O)C(=O)[C@H]2NC(=O)c2ccc(C#N)cc2)c(F)c1` [Example 321], the results for the EC50 on human FPR1 and at human FPR2 were 570 nM and 10 nM, respectively.
Take `COCCn1cc(F)cc(N2C[C@@H](c3c(F)cc(OC)cc3F)[C@H](NC(=O)c3ccc(OC(F)(F)F)cc3)C2=O)c1=O` [Example 322]: the EC50 on human FPR1 worked out at 97 nM; at human FPR2, 10 nM.
Turning to `COc1cc(F)c([C@@H]2CN(c3cc(NC(C)=O)cn(C)c3=O)C(=O)[C@H]2NC(=O)c2ccc(OC(F)F)cc2)c(F)c1` [Example 323], the results for the EC50 on human FPR1 and on human FPR2 were 750 nM and 11 nM, respectively.
For `COc1cc(F)c([C@@H]2CN(c3ccc(C)n(C)c3=O)C(=O)[C@H]2NC(=O)c2ccc(OC(F)F)cc2)c(F)c1` [Example 324], the EC50 came to 130 nM on human FPR1 and 11 nM on human FPR2.
The like results for `COCC(CO)n1ccc(C)c(N2C[C@@H](c3c(F)cc(OC)cc3F)[C@H](NC(=O)c3ccc(OC(F)(F)F)cc3)C2=O)c1=O` (some centres unmarked) [Example 325] were, in that order, 1.6 nM and 11 nM.
With `COc1cc(F)c([C@@H]2CN(c3nc(N4CCC(O)C4=O)ccc3F)C(=O)[C@H]2NC(=O)c2ccc(OC(F)(F)F)cc2)c(F)c1` (some centres unmarked) [Example 326], the values for the EC50 at human FPR1 and on human FPR2 were 35 nM and 11 nM, respectively.
Take `COc1cc(F)c([C@@H]2CN(c3nccc(NC4COC4)c3C(F)(F)F)C(=O)[C@H]2NC(=O)c2ccc(Cl)cc2)c(F)c1` [Example 327]: the values for the EC50 at human FPR1 and on human FPR2 were 1700 nM and 12 nM, respectively.
As to `COc1cc(F)c([C@@H]2CN(c3nc(N4C[C@@H]5C[C@H]4CN5C)ccc3OC)C(=O)[C@H]2NC(=O)c2ccc(OC(F)F)cc2)c(F)c1` [Example 328], the EC50 on human FPR1 amounted to 610 nM; at human FPR2 it was 12 nM.
Consider `COc1cc(F)c([C@@H]2CN(c3cc(C#N)cn(C)c3=O)C(=O)[C@H]2NC(=O)c2ccc(OC(F)F)cc2)c(F)c1` [Example 330], for which the EC50 amounted to 3700 nM on human FPR1 and 13 nM at human FPR2.
